The record followed here is US20230146675A1, “PYRIMIDO[5,4-d]PYRIMIDINE DERIVATIVES AS ENT INHIBITORS FOR THE TREATMENT OF CANCERS, AND COMBINATION THEREOF WITH ADENOSINE RECEPTOR ANTAGONISTS” (ITEOS BELGIUM SA, priority 2020, published 2023).

In this experiment the target is T1, human ENT1 (Homo sapiens, UniProt Q99808).
T1 sequence (Q99808 1-456): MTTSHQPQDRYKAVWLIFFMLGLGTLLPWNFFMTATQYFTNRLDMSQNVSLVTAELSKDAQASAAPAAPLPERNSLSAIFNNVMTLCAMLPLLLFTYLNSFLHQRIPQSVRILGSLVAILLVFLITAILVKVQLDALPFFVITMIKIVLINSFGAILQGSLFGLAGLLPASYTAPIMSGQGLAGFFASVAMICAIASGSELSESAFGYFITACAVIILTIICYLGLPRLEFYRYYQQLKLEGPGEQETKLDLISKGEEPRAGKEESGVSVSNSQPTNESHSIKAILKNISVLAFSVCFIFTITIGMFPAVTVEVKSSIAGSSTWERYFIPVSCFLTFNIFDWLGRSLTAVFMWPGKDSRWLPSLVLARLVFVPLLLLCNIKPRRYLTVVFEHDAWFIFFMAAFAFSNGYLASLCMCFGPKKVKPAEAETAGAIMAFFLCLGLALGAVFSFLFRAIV
Nature of the experiment: ENT1 binding assay (competition with Sahenta-DY647 on JAR cells). The note with it: binned IC50. Also noted: JAR cells expressing ENT1 were bought from ATCC; host or cells: JAR cells. Summed up:
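JAR cells were incubated with test compounds and the fluorescent ligand Sahenta-DY647 in competition. Plates were washed twice by centrifugation (4 min, 400 rcf, 4 °C). Binding potency was derived from the final fluorescence.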
As for `CCN(CCN1CCCC1)c1nc(N2CCC(OC)CC2)c2nc(N(CCOC)CCOC)nc(N3CCC(OC)CC3)c2n1` [Compound 132, N2-ethyl-N6,N6-bis(2-methoxyethyl)-4,8-bis(4-methoxypiperidin-1-yl)-N2-(2-(pyrrolidin-1-yl)ethyl)pyrimido[5,4-d]pyrimidine-2,6-diamine], the half-inhibitory concentration (IC50) was 0.5 to 1 µM.

`COCCN(CCOC)c1nc(N2CCC(OC)CC2)c2nc(N(CCOC)CCOC)nc(NCc3cc(C)no3)c2n1` [Compound 162, N2,N2,N6,N6-tetrakis(2-methoxyethyl)-8-(4-methoxypiperidin-1-yl)-N4-((3-methylisoxazol-5-yl)methyl)pyrimido[5,4-d]pyrimidine-2,4,6-triamine]: the IC50 was in the range of 0.5 to 1 µM.

`COCCN(CCOC)c1nc(N2CCC(OC)CC2)c2nc(N(CCOC)CCOC)nc(NCc3cccc(C#N)c3)c2n1` [Compound 145, 3-(((2,6-bis(bis(2-methoxyethyl)amino)-8-(4-methoxypiperidin-1-yl)pyrimido[5,4-d]pyrimidin-4-yl)amino)methyl)benzonitrile] had an IC50 of under 0.1 µM.

`COCCN(CCOC)c1nc(N2CCC(C)(OC)CC2)c2nc(N(CCOC)CCOC)nc(N3CCC(C)(OC)CC3)c2n1` [Compound 201, 4,8-bis(4-methoxy-4-methylpiperidin-1-yl)-N2,N2,N6,N6-tetrakis(2-methoxyethyl)pyrimido[5,4-d]pyrimidine-2,6-diamine] displayed a half-maximal inhibitory concentration (IC50) of 0.1 to 0.5 µM.

`COCCN(CCOC)c1nc(N2CCn3cncc3C2)c2nc(N(CCOC)CCOC)nc(N3CCN(C)C(=O)C3)c2n1` [Compound 250, 4-(2,6-bis(bis(2-methoxyethyl)amino)-8-(5,6-dihydroimidazo[1,5-a]pyrazin-7(8H)-yl)pyrimido[5,4-d]pyrimidin-4-yl)-1-methylpiperazin-2-one] displayed an IC50 of 0.1 to 0.5 µM.

The molecule `COCCN(CCOC)c1nc(N2CCN(C)C(=O)C2)c2nc(N3CCN(C(=O)OC)CC3)nc(N3CCC(OC)CC3)c2n1` [Compound 284, methyl 4-(6-(bis(2-methoxyethyl)amino)-4-(4-methoxypiperidin-1-yl)-8-(4-methyl-3-oxopiperazin-1-yl)pyrimido[5,4-d]pyrimidin-2-yl)piperazine-1-carboxylate] showed a half-inhibitory concentration (IC50) of 0.5 to 1 µM.

`COCCN(CCOC)c1nc(N2CCN(c3ncn(C)n3)CC2)c2nc(N(CCOC)CCOC)nc(NCC(C)C)c2n1` [Compound 219, N4-isobutyl-N2,N2,N6,N6-tetrakis(2-methoxyethyl)-8-(4-(1-methyl-1H-1,2,4-triazol-3-yl)piperazin-1-yl)pyrimido[5,4-d]pyrimidine-2,4,6-triamine] gave an IC50 of 0.1 to 0.5 µM.

For `COCCN(CCOC)c1nc(N2CCN(C)C(=O)C2)c2nc(N(CCOC)CCOC)nc(N3CCC(F)(F)CC3)c2n1` [Compound 206, 4-(2,6-bis(bis(2-methoxyethyl)amino)-8-(4,4-difluoropiperidin-1-yl)pyrimido[5,4-d]pyrimidin-4-yl)-1-methylpiperazin-2-one], the IC50 was under 0.1 µM.

`COCCN(CCOC)c1nc(N2CCn3ncnc3C2)c2nc(N(CCOC)CCOC)nc(N3CCC(OC)CC3)c2n1` [Compound 116, 4-(5,6-dihydro-[1,2,4]triazolo[1,5-a]pyrazin-7(8H)-yl)-N2,N2,N6,N6-tetrakis(2-methoxyethyl)-8-(4-methoxypiperidin-1-yl)pyrimido[5,4-d]pyrimidine-2,6-diamine] had a concentration for half-maximal inhibition (IC50) of under 0.1 µM.

The molecule `COCCN(CCOC)c1nc(N2CCC(OC)CC2)c2nc(N(CCOC)CCOC)nc(OCc3cnn(C(C)C)c3)c2n1` [Compound 164, 4-((1-isopropyl-1H-pyrazol-4-yl)methoxy)-N2,N2,N6,N6-tetrakis(2-methoxyethyl)-8-(4-methoxypiperidin-1-yl)pyrimido[5,4-d]pyrimidine-2,6-diamine] had a concentration for half-maximal inhibition (IC50) of 0.5 to 1 µM.

The molecule `CCOC(=O)C1CCN(c2nc(N(CCOC)CCOC)nc3c(N4CCC(C(=O)OCC)CC4)nc(N(CCOC)CCOC)nc23)CC1` [Compound 3, diethyl 1,1′-(2,6-bis(bis(2-methoxyethyl)amino)pyrimido[5,4-d]pyrimidine-4,8-diyl)bis(piperidine-4-carboxylate)] yielded a 50% inhibitory concentration (IC50) of 0.1 to 0.5 µM.

The molecule `COCCN(CCOC)c1nc(N2CCN(c3nccs3)CC2)c2nc(N(CCO)CCO)nc(N3CCCCC3)c2n1` [Compound 38, 2,2′-((6-(bis(2-methoxyethyl)amino)-4-(piperidin-1-yl)-8-(4-(thiazol-2-yl)piperazin-1-yl)pyrimido[5,4-d]pyrimidin-2-yl)azanediyl)diethanol] registered a half-inhibitory concentration (IC50) of 0.1 to 0.5 µM.

In the case of `CCCN(C)c1nc(N(CCOC)CCOC)nc2c(N3CCn4ncnc4C3)nc(N(CCOC)CCOC)nc12` [Compound 10, 8-(5,6-dihydro-[1,2,4]triazolo[1,5-a]pyrazin-7(8H)-yl)-N2,N2,N6,N6-tetrakis(2-methoxyethyl)-N4-methyl-N4-propylpyrimido[5,4-d]pyrimidine-2,4,6-triamine], the concentration for half-maximal inhibition (IC50) lay in the range of 0.1 to 0.5 µM.

Consider `COCCN(CCOC)c1nc(N2CC(O)(C(F)(F)F)C2)c2nc(N(CCOC)CCOC)nc(N3CCN(C)C(=O)C3)c2n1` [Compound 189, 4-(2,6-bis(bis(2-methoxyethyl)amino)-8-(3-hydroxy-3-(trifluoromethyl)azetidin-1-yl)pyrimido[5,4-d]pyrimidin-4-yl)-1-methylpiperazin-2-one], for which the IC50 was 0.1 to 0.5 µM.

Molecule `COCCN(CCOC)c1nc(N2CCC(OC)CC2)c2nc(N(CCOC)CCOC)nc(NCc3ccc(C(F)(F)F)nc3)c2n1` [Compound 53, N2,N2,N6,N6-tetrakis(2-methoxyethyl)-8-(4-methoxypiperidin-1-yl)-N4-((6-(trifluoromethyl)pyridin-3-yl)methyl)pyrimido[5,4-d]pyrimidine-2,4,6-triamine] came in with an IC50 of 0.5 to 1 µM.

As to `COCCN(CCOC)c1nc(N2CCC(OC)CC2)c2nc(N(CCOC)CCOC)nc(NCC(C)(C)C)c2n1` [Compound 50, N2,N2,N6,N6-tetrakis(2-methoxyethyl)-8-(4-methoxypiperidin-1-yl)-N4-neopentylpyrimido[5,4-d]pyrimidine-2,4,6-triamine], the IC50 is 0.1 to 0.5 µM.

For `COCCN(CCOC)c1nc(N2CC(O)(C(F)(F)F)C2)c2nc(N(CCOC)CCOC)nc(N3CCC(OC)CC3)c2n1` [Compound 111, 1-(2,6-bis(bis(2-methoxyethyl)amino)-8-(4-methoxypiperidin-1-yl)pyrimido[5,4-d]pyrimidin-4-yl)-3-(trifluoromethyl)azetidin-3-ol], the half-maximal inhibitory concentration (IC50) is under 0.1 µM.

`COCCN(Cc1ccc(OC)c(OC)c1OC)c1nc(N2CCN(C)C(=O)C2)c2nc(N(CCOC)CCOC)nc(N3CCC(OC)CC3)c2n1` [Compound 302, 4-(6-(bis(2-methoxyethyl)amino)-2-((2-methoxyethyl)(2,3,4-trimethoxybenzyl)amino)-8-(4-methoxypiperidin-1-yl)pyrimido[5,4-d]pyrimidin-4-yl)-1-methylpiperazin-2-one] gave an IC50 of under 0.1 µM.

Turning to `COCCN(CCOC)c1nc(N2CCC(C)C2)c2nc(N(CCOC)CCOC)nc(N3CCC(OC)CC3)c2n1` (stereo not shown) [Compound 91, N2,N2,N6,N6-tetrakis(2-methoxyethyl)-4-(4-methoxypiperidin-1-yl)-8-(3-methylpyrrolidin-1-yl)pyrimido[5,4-d]pyrimidine-2,6-diamine], the IC50 fell in the range of 0.1 to 0.5 µM.

Consider `COCCN(CCO)c1nc(N2CCC(OC)CC2)c2nc(N(CCOC)CCOC)nc(N3CCC(OC)CC3)c2n1` [Compound 34, 2-((6-(bis(2-methoxyethyl)amino)-4,8-bis(4-methoxypiperidin-1-yl)pyrimido[5,4-d]pyrimidin-2-yl)(2-methoxyethyl)amino)ethanol], for which the half-maximal inhibitory concentration (IC50) was 0.5 to 1 µM.

On to `COCCN(CCOC)c1nc(N2CCC(OC)CC2)c2nc(N(CCOC)CCOC)nc(N3CCC(COC)CC3)c2n1` [Compound 76, N2,N2,N6,N6-tetrakis(2-methoxyethyl)-4-(4-(methoxymethyl)piperidin-1-yl)-8-(4-methoxypiperidin-1-yl)pyrimido[5,4-d]pyrimidine-2,6-diamine], for which the IC50 was in the range of 0.5 to 1 µM.

Regarding `COCCN(CCOC)c1nc(N2CCC(OC)CC2)c2nc(N(CCOC)CCOC)nc(NCc3cccnc3)c2n1` [Compound 62, N2,N2,N6,N6-tetrakis(2-methoxyethyl)-8-(4-methoxypiperidin-1-yl)-N4-(pyridin-3-ylmethyl)pyrimido[5,4-d]pyrimidine-2,4,6-triamine], the half-maximal inhibitory concentration (IC50) was in the range of 0.5 to 1 µM.

As to `COCCN(CCOC)c1nc(N2CC(CO)C2)c2nc(N(CCOC)CCOC)nc(N3CCC(OC)CC3)c2n1` [Compound 92, (1-(2,6-bis(bis(2-methoxyethyl)amino)-8-(4-methoxypiperidin-1-yl)pyrimido[5,4-d]pyrimidin-4-yl)azetidin-3-yl)methanol], the IC50 is 0.1 to 0.5 µM.

Regarding `CCN(CCN1CCCCC1)c1nc(N2CCN(C)C(=O)C2)c2nc(N(CCOC)CCOC)nc(N3CCC(OC)CC3)c2n1` [Compound 272, 4-(6-(bis(2-methoxyethyl)amino)-2-(ethyl(2-(piperidin-1-yl)ethyl)amino)-8-(4-methoxypiperidin-1-yl)pyrimido[5,4-d]pyrimidin-4-yl)-1-methylpiperazin-2-one], the 50% inhibitory concentration (IC50) lay within 0.1 to 0.5 µM.

On to `COCCN(CCOC)c1nc(N2CC(O)(C(F)(F)F)C2)c2nc(N(CCOC)CCOC)nc(NCc3ccccc3)c2n1` [Compound 12, 1-(8-(benzylamino)-2,6-bis(bis(2-methoxyethyl)amino)pyrimido[5,4-d]pyrimidin-4-yl)-3-(trifluoromethyl)azetidin-3-ol], for which the half-inhibitory concentration (IC50) is under 0.1 µM.

In general, IC50 refers to the concentration needed to halve the response being measured. Higher therefore signals weaker potency in that assay.
